Results taken from PMC10178562, “Synthesis and Characterisation of Fluorescent Novel Pt(II) Cyclometallated Complexes with Anticancer Activity” (International Journal of Molecular Sciences, 2023).

Columns and labels:
HT29 Colon = assay: MTT cytotoxicity HT29; assay type: cell-based; settings: read-out: GI50 Concentration That Inhibits Cell Growth by 50%, 72 h
Method: (§1) Cytotoxicity assay studies were performed at Calvary Mater Newcastle Hospital, Waratah, NSW, Australia. In vitro studies were performed according to described methods. Complexes were prepared in DMSO as stock treatment (30 mM) solutions and stored at −20 °C. All cell lines were cultured in a humidified atmosphere with 5% CO2 at 37 °C and maintained in Dulbecco’s modified eagle’s medium (DMEM; Trace Biosciences, Melbourne, Australia) supplemented with 10% foetal bovine serum, sodium bicarbonate (10 mM), penicillin (100 IU mL^−1), streptomycin (100 μg mL^−1), and L-glutamine (4 mM). The non-cancer MCF10A cell line was cultured in DMEM.F12 (1:1) cell culture media (Composition in SI). Cytotoxicity was determined by plating cells in duplicate in 100 μL medium at a density of 2500–4000 cells per well in 96-well plates. After 24 h, when cells were in logarithmic growth, media (100 μL) with or without the test agent were added to each well (day 0). After 72 h of exposure, growth inhibitory effects were evaluated by MTT (3-[4,5-dimethylthiazol-2-yl]-2,5-diphenyltetrazolium bromide) assay, and absorbance was read at 540 nm. […] These calculations were based on the difference between the optical density values on day 0 and those at the end of drug exposure.

U87 Glioblastoma = assay: MTT cytotoxicity U87; assay type: cell-based; settings: read-out: GI50 Concentration That Inhibits Cell Growth by 50%, 72 h
Method: as §1

MCF-7 Breast = assay: MTT cytotoxicity MCF-7; assay type: cell-based; settings: for GI50: read-out: GI50 Concentration That Inhibits Cell Growth by 50%, MCF-7 Breast, 72 h, MTT
Method: as §1

A2780 Ovarian = assay: MTT cytotoxicity A2780; assay type: cell-based; settings: read-out: GI50 Concentration That Inhibits Cell Growth by 50%, 72 h
Method: as §1

H460 Lung = assay: MTT cytotoxicity H460; assay type: cell-based; settings: read-out: GI50 Concentration That Inhibits Cell Growth by 50%, 72 h
Method: as §1

A431 Skin = assay: MTT cytotoxicity A431; assay type: cell-based; settings: read-out: GI50 Concentration That Inhibits Cell Growth by 50%, 72 h
Method: as §1

Du145 Prostate = assay: MTT cytotoxicity Du145; assay type: cell-based; settings: read-out: GI50 Concentration That Inhibits Cell Growth by 50%, 72 h
Method: as §1

BE2-C Neuroblastoma = assay: MTT cytotoxicity BE2-C; assay type: cell-based; settings: read-out: GI50 Concentration That Inhibits Cell Growth by 50%, 72 h
Method: as §1

SJ-G2 Glioblastoma = assay: MTT cytotoxicity SJ-G2; assay type: cell-based; settings: read-out: GI50 Concentration That Inhibits Cell Growth by 50%, 72 h
Method: as §1

MIA Pancreas = assay: MTT cytotoxicity MIA; assay type: cell-based; settings: read-out: GI50 Concentration That Inhibits Cell Growth by 50%, 72 h
Method: as §1

MCF10A Breast (normal) = assay: MTT cytotoxicity MCF10A (non-cancer); assay type: cell-based; settings: read-out: GI50 Concentration That Inhibits Cell Growth by 50%, 72 h
Method: as §1

[1] = Lipophilicity by RP-HPLC (log Kw); assay type: physicochemical; settings: isocratic 70 to 90% solvent B
Method: Lipophilicity was calculated using a RP-HPLC method to determine log Kw, whereby a stock solution was injected at different isocratic ratios ranging from 70 to 90% solvent B (organic) at a flow rate of 1 mL min^−1. These experiments were undertaken on an Agilent Technologies 1260 Infinity machine equipped with a Phenomenex Onyx™ Monolithic C18 reverse phase column (100 × 4.6 mm, 130 Å). The mobile phase comprised 0.06% TFA in water (solvent A) and 0.06% TFA in ACN:H2O (90:10, solvent B). The dead zero volume time was determined using potassium iodide as an external dead volume marker, further details are provided in the Supplementary Materials.

calf thymus DNA (ctDNA) [2] = assay: Fluorescent intercalator displacement (FID) assay, EtBr-saturated ctDNA; assay type: binding; parameters: Kq (bimolecular quenching constant) / KSV (Stern–Volmer quenching constant): unit not given here; settings: buffer pH 7.0
Method: To investigate the potential mechanisms of action of complexes 1–3, fluorescent intercalator displacement (FID) experiments and DNA binding experiments utilizing the innate fluorescence were undertaken. For FID experiments, the concentration of a fluorescent intercalator, in this case ethidium bromide (EtBr), that is displaced by the complex under investigation is determined. In a solution of calf-thymus DNA (ctDNA) where is saturated with EtBr, the change in fluorescence is monitored as the complex is titrated into this solution. Once the decrease in fluorescence has stopped, the concentration of the complex allows us to calculate the stoichiometric point of binding, the change in fluorescence at the point of binding (ΔFsat), the binding coefficient (Ka), bimolecular quenching constant (Kq), Stern–Volmer quenching constant (Ksv), the binding constant for fluorescence (KF), and the molar equivalents of CMC (n) at the point of intersection is the experimental stoichiometry of binding. (1) [ctDNA]Tn−∆Fx/∆Fsat=[CMC] (2) ∆Fx/∆Fsat1/n=fraction of ctDNA−CMC complex (3) 1−∆Fx/∆Fsat1/n=fraction free CMC
The fluorescence at 601 nm for each titration was plotted, and the KF and n could be calculated from the intercept and slope, respectively. (4) F0/F=1+Kqτ0CMC=1+KSV[CMC] where F0 is the fluorescence of the binding site in the absence of quencher (CMC), F is the fluorescence of the site containing the CMC, and t0 is the lifetime of the chromophore in the absence of the quencher (Ɛ476 = 5680 for ethidium-bound DNA).
A plot of F0/F against [CMC] using experimental values allows for the determination of Kq and KSV from the slope. (5) log10F0−F/F=nlog10CMC+log10KF where n is the number of ethidium ligands that are displaced per CMC. […] A plot of log10[(F0 − F)/F)] against log10[CMC] is used to determine KF and n from the intercept and slope, respectively. Experiments were performed in triplicate for each CMC.
Fluorescent intercalator displacement (FID) assays were obtained using the same instrument and by using 10 mm quartz cells. Stock solutions CMCs 1–3 (30 µM) were titrated into a solution of […] ethidium bromide, 150 µM ctDNA in a 40 mM K2HPO4/KH2PO, and 10 mM KCl buffer at pH 7.0. The fluorescence was measured from 550 to 750 nm excited at 480 nm and inverting 4 times and waiting 3 min between the addition of ctDNA and scan time to allow adequate time for the CMCs to interact with the DNA.

calf thymus DNA (ctDNA) [3] = assay: Direct ctDNA binding by inherent fluorescence (Benesi–Hildebrand); settings: inherent fluorescence method, 10 µM CMC, buffer pH 7.0
Method: ctDNA experiments utilising the inherent fluorescence of the complexes were completed in addition to the FID experiments. […] The values of Ka and n for the compounds are listed in Table 4, where R^2 is the linear correlation coefficient for Ka.
The direct fluorescent measurements of DNA binding constants were also obtained with the same fluorimeter using 10 mm path length quartz cells. A 0.065 M stock solution of ctDNA was titrated into a 10 µM solution of CMCs 1–3 in a 40 mM K2HPO4/KH2PO, 10 mM KCl buffer at pH 7.0. The fluorescence was measured from 550 to 750 nm excited at 320 nm inverting 4 times and waiting 3 min between the addition of ctDNA and scan time to allow adequate time for the CMCs to interact with the DNA.

ADDP Cis Res Ovarian = assay: MTT cytotoxicity ADDP; assay type: cell-based; settings: read-out: GI50 Concentration That Inhibits Cell Growth by 50%, 72 h
Method: as §1

Molecule	GI50 (HT29 Colon) [µM]	GI50 (U87 Glioblastoma) [µM]	GI50 (MCF-7 Breast) [µM]	GI50 (A2780 Ovarian) [µM]	GI50 (H460 Lung) [µM]	GI50 (A431 Skin) [µM]	GI50 (Du145 Prostate) [µM]	GI50 (BE2-C Neuroblastoma) [µM]	GI50 (SJ-G2 Glioblastoma) [µM]	GI50 (MIA Pancreas) [µM]	GI50 (MCF10A Breast (normal)) [µM]	KSV (Stern–Volmer quenching constant) (calf thymus DNA (ctDNA) [2])	Ka (binding coefficient) (calf thymus DNA (ctDNA) [2])	Kf (binding constant for fluorescence) (calf thymus DNA (ctDNA) [2])	Kq (bimolecular quenching constant) (calf thymus DNA (ctDNA) [2])	Point of Experimental Stoichiometry of Binding (calf thymus DNA (ctDNA) [2])	n (number of ethidium ligands displaced per CMC) (calf thymus DNA (ctDNA) [2])	ΔFsat (change in fluorescence at the point of binding) (calf thymus DNA (ctDNA) [2])	Ka (binding constant) (calf thymus DNA (ctDNA) [3])	GI50 (ADDP Cis Res Ovarian) [µM]	further results
N.N.[Cl][Pt][Cl] [Cisplatin, cisplatin, reference compound]	11.3 ± 1.9	3.8 ± 1.1	6.5 ± 0.8	1 ± 0.1	0.9 ± 0.2	2.4 ± 0.3	1.2 ± 0.1	1.9 ± 0.2	0.4 ± 0.1	7.5 ± 1.3	–	–	–	–	–	–	–	–	–	–	–
Cc1c(C)c2cccnc2c2ncccc12.N[C@H]1CCCC[C@@H]1N.[Pt] [Complex 56MESS, reference compound]	–	0.076 ± 0.014	0.05 ± 0.02	0.03 ± 0.004	0.037 ± 0.009	0.051 ± 0.021	0.007 ± 0.002	0.1 ± 0.016	0.074 ± 0.018	0.015 ± 0.002	0.032 ± 0.007	–	–	–	–	–	–	–	–	–	SI = GI50 for normal cells/GI50 for cancer cells (MCF10A/MCF-7) (MCF-7 Breast): 0.64
[Pt(Bequ)( SSDACH)]+ [Complex 2a]	16 ± 1.3	8.6 ± 1.1	5.4 ± 1	18 ± 2.3	11 ± 1.5	12 ± 2.4	26 ± 2	23 ± 3.5	13 ± 2.2	20 ± 3	20 ± 1	1.339	1.58 × 10^4	3.25	0.241	2.52	0.592	89.29	1.11 × 10^4	14 ± 0.3	Lipophilicity × 10^−2 (log Kw) [1]: 2.06 ± 0.097 × 10^−2
[Pt(Bequ)(RRDACH)]+ [Complex 2b]	30 ± 2.3	4.3 ± 0.3	7.7 ± 2	5 ± 0.3	8.1 ± 1	3.4 ± 0.3	20 ± 2.7	48 ± 1.7	10 ± 2.2	8.1 ± 1.6	10.3 ± 1.9	1.662	1.59 × 10^4	3.78	0.271	2.47	0.668	89.01	1.39 × 10^4	19 ± 3	Lipophilicity × 10^−2 (log Kw) [1]: 3.97 ± 0.053 × 10^−2; SI = GI50 for normal cells/GI50 for cancer cells (MCF10A/MCF-7) (MCF-7 Breast): 1.33
[Pt(DiBequ)(RRDACH)]+ [Complex 3b]	16 ± 0.3	4.1 ± 0.3	4.2 ± 0.3	4.5 ± 0.3	8.2 ± 2.9	3.9 ± 0.4	16 ± 1.5	33 ± 1.2	10.1 ± 2.6	12.5 ± 2	8.5 ± 1.4	1.727	3.98 × 10^4	4.22	0.297	2.62	0.757	82.38	3.68 × 10^4	6.9 ± 0.4	Lipophilicity × 10^−2 (log Kw) [1]: 0.4 ± 0.029 × 10^−2
[Pt(Pepy)(SSDACH)]+ [Complex 1a]	13 ± 1	5.3 ± 0.3	8.4 ± 2	12 ± 0.7	5.8 ± 0.4	4.2 ± 0.5	9 ± 2	34 ± 7.5	11 ± 0.7	8 ± 1.6	6.4 ± 0.5	1.988	2.75 × 10^4	4.35	0.329	2.84	0.778	83.82	2.20 × 10^4	5.1 ± 0.3	SI = GI50 for normal cells/GI50 for cancer cells (MCF10A/MCF-7) (MCF-7 Breast): 0.76
